pKi: −log10 of the molar value. A value given as a limit tells only on which side of the number the result lay.

One assay deals with T1, human σ1 receptor (Homo sapiens, UniProt Q99720).
T1 construct: expressed in transfected cells; host or cells: HEK-293
Kind of assay: Human σ1 receptor radioligand assay. Conditions: transfected HEK-293 membranes, 5 nM [3H](+)-pentazocine, 37° C. 120 minutes; + may also stand for 1-50% inhibition at 1 or 10 μM; read-out: Binding σ-1 Ki. Summed up:
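Ki was derived from five test concentrations, or % inhibition was measured at a single 1 or 10 μM dose, against 5 nM [3H](+)-pentazocine. Incubation was 120 min at 37° C in 50 mM Tris-HCl pH 8 with 7 μg HEK-293 membranes, and 10 μM haloperidol set non-specific binding. Bound radioactivity was counted after filtration.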

A further assay has as its target T2, human σ2/TMEM97 receptor (Homo sapiens, UniProt Q5BJF2).
T2 construct: expressed in transfected cells; host or cells: HEK-293
Kind of assay: Binding assay to human σ2/TMEM97 receptor. The conditions noted are these: transfected HEK-293 membranes, 10 nM [3H]-DTG, 25° C. 120 minutes; + may also stand for 1-50% inhibition at 1 or 10 μM; read-out: Binding σ-2 Ki. Summed up: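 Membranes from transfected HEK-293 cells (15 µg) were incubated with 10 nM [3H]-DTG in 50 mM Tris-HCl pH 8.0 for 120 min at 25 °C, with 10 µM haloperidol defining non-specific binding. Filtration and scintillation counting followed. Compounds tested as % inhibition at 1 or 10 µM, or at five concentrations for Ki.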

T2 sequence (Q5BJF2 whole entry): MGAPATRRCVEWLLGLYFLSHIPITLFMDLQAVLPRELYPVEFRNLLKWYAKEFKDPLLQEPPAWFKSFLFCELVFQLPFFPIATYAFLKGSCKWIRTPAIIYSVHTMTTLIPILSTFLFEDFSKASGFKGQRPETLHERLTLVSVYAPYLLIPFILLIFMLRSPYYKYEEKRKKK
T1 sequence (Q99720 whole entry): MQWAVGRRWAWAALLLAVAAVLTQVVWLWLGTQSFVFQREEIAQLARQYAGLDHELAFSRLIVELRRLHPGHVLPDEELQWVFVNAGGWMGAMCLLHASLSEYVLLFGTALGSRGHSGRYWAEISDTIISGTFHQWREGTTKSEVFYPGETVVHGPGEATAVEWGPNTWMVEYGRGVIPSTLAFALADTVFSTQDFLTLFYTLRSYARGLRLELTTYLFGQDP

In general, pKi refers to the negative decadic logarithm of the Ki, by convention in mol/L. Regarding `CC(C)(C)CCN1CCC2(CC1)CCN(S(=O)(=O)c1ccc(N3CCOCC3=O)nc1)CC2` [Example 131, 4-(5-((9-(3,3-Dimethylbutyl)-3,9-diazaspiro[5.5]undecan-3-yl)sulfonyl)pyridin-2-yl)morpholin-3-one], the pKi at human σ1 receptor was 6.30 to 7.00; on human σ2/TMEM97 receptor, greater than 7.00.
On to `CC(C)(C)CCN1CCC2(CC1)CCN(S(=O)(=O)c1ccc(N3CCCCC3=O)nc1)CC2` [Example 132, 1-(5-((9-(3,3-Dimethylbutyl)-3,9-diazaspiro[5.5]undecan-3-yl)sulfonyl)pyridin-2-yl)piperidin-2-one], for which the pKi was 6.30 to 7.00 on human σ1 receptor and greater than 7.00 on human σ2/TMEM97 receptor.
Regarding `CC(C)(C)CCN1CCC2(CC1)CCN(S(=O)(=O)c1ccc(N3CCCC3=O)nc1)CC2` [Example 133, 1-(5-((9-(3,3-Dimethylbutyl)-3,9-diazaspiro[5.5]undecan-3-yl)sulfonyl)pyridin-2-yl)pyrrolidin-2-one], the figures for the negative-log Ki (pKi) on human σ1 receptor and at human σ2/TMEM97 receptor were 6.30 to 7.00 and greater than 7.00, respectively.
As for `CC(C)(C)CCN1CCC2(CC1)CCN(S(=O)(=O)c1ccc(N3CCOC3=O)nc1)CC2` [Example 134, 3-(5-((9-(3,3-Dimethylbutyl)-3,9-diazaspiro[5.5]undecan-3-yl)sulfonyl)pyridin-2-yl)oxazolidin-2-one], the pKi at human σ1 receptor is 6.30 to 7.00; at human σ2/TMEM97 receptor it was greater than 7.00.
In the case of `O=C1OCCN1c1ccc(S(=O)(=O)N2CCC3(CCN(Cc4ccccc4)CC3)CC2)cn1` [Example 135, 3-(5-((9-Benzyl-3,9-diazaspiro[5.5]undecan-3-yl)sulfonyl)pyridin-2-yl)oxazolidin-2-one], the pKi on human σ1 receptor and on human σ2/TMEM97 receptor was greater than 7.00 in each case.
Take `CC(C)(C)CCN1CCCC2(CCN(S(=O)(=O)c3ccc(N4CCCC4=O)nc3)CC2)C1` [Example 136, 1-(5-((2-(3,3-Dimethylbutyl)-2,9-diazaspiro[5.5]undecan-9-yl)sulfonyl)pyridin-2-yl)pyrrolidin-2-one]: the pKi on human σ1 receptor and at human σ2/TMEM97 receptor was greater than 7.00 throughout.
For `CC(C)(C)CCN1CCCC2(CCN(S(=O)(=O)c3ccc(N4CCOC4=O)nc3)CC2)C1` [Example 137, 3-(5-((2-(3,3-Dimethylbutyl)-2,9-diazaspiro[5.5]undecan-9-yl)sulfonyl)pyridin-2-yl)oxazolidin-2-one], the pKi at human σ1 receptor and at human σ2/TMEM97 receptor was greater than 7.00 in each case.
`CC(C)(C)CCN1CCC2(CC1)CCN(S(=O)(=O)c1ccc(N3CCOC3=O)nc1)C2` [Example 138, 3-(5-((8-(3,3-Dimethylbutyl)-2,8-diazaspiro[4.5]decan-2-yl)sulfonyl)pyridin-2-yl)oxazolidin-2-one]: the pKi on human σ1 receptor and on human σ2/TMEM97 receptor was greater than 7.00 in each case.
On to `CC(C)(C)CCN1CCC2(CC1)CCN(S(=O)(=O)c1ccc(N3CCCC3=O)nc1)C2` [Example 139, 1-(5-((8-(3,3-Dimethylbutyl)-2,8-diazaspiro[4.5]decan-2-yl)sulfonyl)pyridin-2-yl)pyrrolidin-2-one], for which the negative-log Ki (pKi) on human σ1 receptor and at human σ2/TMEM97 receptor was greater than 7.00 throughout.
Consider `CC(C)(C)CCN1CCC2(CC1)CCN(S(=O)(=O)c1cnc(N3CCOC3=O)c(F)c1)CC2` [Example 140, 3-(5-((9-(3,3-Dimethylbutyl)-3,9-diazaspiro[5.5]undecan-3-yl)sulfonyl)-3-fluoropyridin-2-yl)oxazolidin-2-one], for which the pKi was 6.30 to 7.00 on human σ1 receptor and greater than 7.00 on human σ2/TMEM97 receptor.
The matching figures for `CC(C)(C)CCN1CCC2(CC1)CCN(S(=O)(=O)c1cnc(N3CCCC3=O)c(F)c1)CC2` [Example 141, 1-(5-((9-(3,3-Dimethylbutyl)-3,9-diazaspiro[5.5]undecan-3-yl)sulfonyl)-3-fluoropyridin-2-yl)pyrrolidin-2-one]: 6.30 to 7.00 and greater than 7.00.
In the case of `CN(Cc1ccccc1)C1CCN(S(=O)(=O)c2ccc(N3CCOC3=O)nc2)CC1` [Example 142, 3-(5-((4-(Benzyl(methyl)ami-no)piperidin-1-yl)sulfonyl)pyridin-2-yl)oxazolidin-2-one], the pKi is 6.30 to 7.00 at human σ1 receptor and greater than 7.00 on human σ2/TMEM97 receptor.
The corresponding values for `CC(C)(C)CN1CCC2(CC1)CCN(S(=O)(=O)c1ccc(N3CCOC3=O)nc1)CC2` [Example 143, 3-(5-((9-Neopentyl-3,9-diazaspiro[5.5]undecan-3-yl)sulfonyl)pyridin-2-yl)oxazolidin-2-one] are less than 6.00 and greater than 7.00.
The matching figures for `O=C1OCCN1c1ccc(S(=O)(=O)N2CCC3(CCN(Cc4ccccc4)CC3)C2)cn1` [Example 144, 3-(5-((8-Benzyl-2,8-diazaspiro[4.5]decan-2-yl)sulfonyl)pyridin-2-yl)oxazolidin-2-one]: 6.30 to 7.00 and 6.30 to 7.00.
As for `O=C1OCCN1c1ccc(S(=O)(=O)N2CCC3(CCCN(Cc4ccccc4F)C3)CC2)cn1` [Example 145, 3-(5-((2-(2-Fluorobenzyl)-2,9-diazaspiro[5.5]undecan-9-yl)sulfonyl)pyridin-2-yl)oxazolidin-2-one], the figures for the pKi at human σ1 receptor and at human σ2/TMEM97 receptor were 6.00 to 6.30 and 6.30 to 7.00, respectively.
With `O=C1OCCN1c1ccc(S(=O)(=O)N2CCC3(CCCN(Cc4cc(F)ccc4F)C3)CC2)cn1` [Example 146, 3-(5-((2-(2,5-Difluorobenzyl)-2,9-diazaspiro[5.5]undecan-9-yl)sulfonyl)pyridin-2-yl)oxazolidin-2-one], the negative logarithm of the Ki (pKi) at human σ1 receptor and on human σ2/TMEM97 receptor was 6.00 to 6.30 throughout.
Take `O=C1OCCN1c1ccc(S(=O)(=O)N2CCC3(CCCN(Cc4ccccc4)C3)CC2)cn1` [Example 147, 3-(5-((2-Benzyl-2,9-diazaspiro[5.5]undecan-9-yl)sulfonyl)pyridin-2-yl)oxazolidin-2-one]: the negative logarithm of the Ki (pKi) was 6.00 to 6.30 on human σ1 receptor and 6.30 to 7.00 on human σ2/TMEM97 receptor.
As to `CN(Cc1ccccc1)C1CCN(S(=O)(=O)c2ccc(N3CCCC3=O)nc2)CC1` [Example 148, 1-(5-((4-(Benzyl(methyl)ami-no)piperidin-1-yl)sulfonyl)pyridin-2-yl)pyrrolidin-2-one], the pKi at human σ1 receptor was 6.30 to 7.00; on human σ2/TMEM97 receptor it was greater than 7.00.
Take `O=C1OCCN1c1ccc(S(=O)(=O)N2CCC3(CCCN(CC4CCOCC4)C3)CC2)cn1` [Example 149, 3-(5-((2-((Tetrahydro-2H-pyran-4-yl)methyl)-2,9-diazaspiro[5.5]undecan-9-yl)sulfonyl)pyridin-2-yl)oxazolidin-2-one]: the pKi on human σ1 receptor was greater than 7.00; on human σ2/TMEM97 receptor it was 6.30 to 7.00.
Take `CC(C)(C)CN1CCCC2(CCN(S(=O)(=O)c3ccc(N4CCOC4=O)nc3)CC2)C1` [Example 150, 3-(5-((2-Neopentyl-2,9-diazaspiro[5.5]undecan-9-yl)sulfonyl)pyridin-2-yl)oxazolidin-2-one]: the negative-log Ki (pKi) on human σ1 receptor is 6.00 to 6.30; at human σ2/TMEM97 receptor, less than 6.00.
With `N#Cc1ccc(CN2CCCC3(CCN(S(=O)(=O)c4ccc(N5CCOC5=O)nc4)CC3)C2)cc1F` [Example 151, 2-Fluoro-4-((9-((6-(2-oxooxazolidin-3-yl)pyridin-3-yl)sulfonyl)-2,9-diazaspiro[5.5]undecan-2-yl)methyl)benzonitrile], the results for the pKi on human σ1 receptor and at human σ2/TMEM97 receptor were 6.30 to 7.00 and greater than 7.00, respectively.
Turning to `N#Cc1cc(CN2CCCC3(CCN(S(=O)(=O)c4ccc(N5CCOC5=O)nc4)CC3)C2)ccc1F` [Example 152, 2-Fluoro-5-((9-((6-(2-oxooxazolidin-3-yl)pyridin-3-yl)sulfonyl)-2,9-diazaspiro[5.5]undecan-2-yl)methyl)benzonitrile], the pKi at human σ1 receptor and on human σ2/TMEM97 receptor was less than 6.00 throughout.
